Results reported in patent US9554988B2, “Method for preventing or treating skin tumor” (Galderma Research & Development, priority 2010, dated 2017).
Where two headings read alike, the source gives them in different places.

Columns and labels:
[1] = system: Albino hairless SKH1-hr mice; settings: for Median Week to Tumor (≧1 mm): 40 weeks treatment + 12 weeks observation, time at which one-half of group has one or more qualifying tumors; for Tumor Yield (≧1 mm): average number of tumors per survivor
Method: Albino hairless SKH1-hr mice (36/sex/group) were treated for 40 weeks with UVR and brimonidine gel or vehicle according to the design in table 11. […] Topical treatments were performed approximately one hour before UVR on Monday, Wednesday and Friday of each week and approximately one hour after UVR Tuesday and Thursday of each week.

[2] = system: human tumor epithelial breast cell lines or mouse mammary tumor cell line; settings: activation of alpha-adrenoceptors; Vazquez et al. 2006, Bruzzone et al. 2008; cited from earlier work
[3] = system: pancreatic cancer cells; settings: Shen et al. 2008; cited from earlier work
[4] = 0.18% topical + 600 RBU/week UVR

Brimonidine tartrate
Reduction of tumor yield (≧1 mm) compared to the vehicle group [1, 4]: 1.7 fold | Median Week to Tumor (≧1 mm) [1, 4]: 48 Week | Tumor Yield (≧1 mm) [1, 4]: 2.40 tumors per survivor | Members of the group that acquired one or more qualifying tumors (≧1 mm) within the 52-week study period ([1]; 1% topical + 600 RBU/week UVR): less than one-half of the members of the groups acquired one or more qualifying tumors | Reduction of tumor yield (≧1 mm) compared to the vehicle group ([1]; 1% topical + 600 RBU/week UVR): 4.7 fold | Median Week to Tumor (≧1 mm) ([1]; 1% topical + 600 RBU/week UVR): >52 Week | Tumor Yield (≧1 mm) ([1]; 1% topical + 600 RBU/week UVR): 0.85 tumors per survivor | Members of the group that acquired one or more qualifying tumors (≧1 mm) within the 52-week study period ([1]; 2% topical + 600 RBU/week UVR): less than one-half of the members of the groups acquired one or more qualifying tumors | Reduction of tumor yield (≧1 mm) compared to the vehicle group ([1]; 2% topical + 600 RBU/week UVR): 8.1 fold | Median Week to Tumor (≧1 mm) ([1]; 2% topical + 600 RBU/week UVR): >52 Week | Tumor Yield (≧1 mm) ([1]; 2% topical + 600 RBU/week UVR): 0.49 tumors per survivor | UV-induced skin tumor formation ([1]; topical 0.18%, 1% and 2% concentrations): dose-dependent delay | Sizes of tumors (tumor prevalence, FIG. 1) ([1]; with increasing concentration, perceptible, 1 mm, 2 mm, 4 mm tumors, sexes combined): sizes of tumors were also reduced

Clc1cccc(Cl)c1N=C1NCCN1 [clonidine]
Proliferation of tumor cell lines [2]: enhanced proliferation

Cc1cc(C(C)(C)C)c(O)c(C)c1CC1=NCCN1 [oxymetazoline]
Proliferation of tumor cell lines [2]: enhanced proliferation

Cc1cccc([C@H](C)c2cnc[nH]2)c1C [dexmedetomidine]
Proliferation of tumor cell lines [2]: enhanced proliferation

COC(=O)[C@@H]1[C@H]2C[C@H]3c4[nH]c5ccccc5c4CCN3C[C@@H]2CC[C@@H]1O [yohimbine]
Apoptosis of pancreatic cancer cells [3]: induced apoptosis | Proliferation of pancreatic cancer cells [3]: inhibited the proliferation
